Data taken from US12054478B2, “Compositions and methods for inhibiting phenyl triazole MLL1-WDR5 protein-protein interaction” (China Pharmaceutical University, priority 2018, dated 2024).
In brackets after ≈: the same amount, converted by molar mass. Where two headings read alike, the source gives them in different places.

Assays:
Solubility at pH 7.4 = format: physicochemical; conditions: aqueous medium at pH 7.4 (water solubility), aqueous buffer
[1] = molecular target: MLL1-WDR5 protein-protein interactions (Homo sapiens, UniProt P61964); assay: Inhibition of MLL1-WDR5 protein-protein interaction; format: binding
[2] = test system: K562 human chronic myeloid leukemia cells; assay: Anti-proliferation on leukemia cells, K562; format: cell-based
Procedure: Anti-proliferation experiments were conducted with leukemia cells with some of the compounds in the present disclosure. Table 3 listed the results of evaluation of the anti-proliferation activities for some of the compounds from this present disclosure conducted with acute leukemia cells, wherein MV4-11 is human acute leukemia monocyte, Molm-13 is human acute myeloid leukemia cells, and K562 is human chronic myeloid leukemia cells.

female balb/c mice = conditions: 80 mg/kg intraperitoneal, 10 consecutive days
Procedure: In the meantime, subacute toxicity experiments were conducted to evaluate the safety of some of the compounds in the present disclosure in mouse.

[3] = test system: Molm-13 human acute myeloid leukemia cells; assay: Anti-proliferation on leukemia cells, Molm-13; format: cell-based; conditions: Homo sapiens; Molm-13 cells
Procedure: (§1) Anti-proliferation experiments were conducted with leukemia cells with some of the compounds in the present disclosure.

[4] = test system: MV4-11 human acute leukemia monocyte; assay: Anti-proliferation on leukemia cells, MV4-11; format: cell-based; conditions: Homo sapiens, MV4-11; MV-411 cells
Procedure: as §1

[5] = Table 2, biphenyl comparison compounds
[6] = Table 2, compounds of this present disclosure
[7] = Table 2, compounds of this present disclosure, read-out: MLL1-WDR5 PP1 inhibition activity
[8] = Table 2, biphenyl comparison compounds (Eur. J. Med. Chem. 2016, 124, 480-489), read-out: MLL1-WDR5 PP1 inhibition activity
[9] = Table 1, read-out: MLL1-WDR5 PPI inhibition activity

Row | GI50 [2] [µM] | GI50 [3] [µM] | GI50 [4] [µM] | IC50 [1, 9] [µM] | Structure (SMILES) | also measured
1 | – | – | 23.2 ± 3.2 | < 0.08 | Cc1c(F)c(N)cc(C(=O)Nc2cc(-n3cc(NC(=O)OC(C)(C)C)nn3)ccc2N2CCN(C)CC2)c1Cl [Example 12] | –
2 | 12.9 ± 0.2 | 18.5 ± 1.9 | 14.3 ± 1.7 | < 0.01 | Cc1c(F)c(N)cc(C(=O)Nc2cc(-n3cc(NC(=O)C4CCNCC4)nn3)ccc2N2CCN(C)CC2)c1Cl [Example 15, N-(1-(3-(5-amino-2-chloro-4-fluoro-3-Methylbenzoylamino)-4-(4-methylpiperazingroup)phenyl)-1H-1,2,3-Triazopyridine-4-group) Piperidine-4-formamide] | –
3 | 13.5 ± 1.2 | 13.5 ± 1.2 | 13.5 ± 1.2 | < 0.01 | Cc1c(F)c(N)cc(C(=O)Nc2cc(-n3cc(C(=O)NCCCN)nn3)ccc2N2CCN(C)CC2)c1Cl [Example 10] | –
4 | 21.3 ± 2.4 | 7.3 ± 0.8 | 10.4 ± 1.1 | < 0.05 | Cc1c(F)c(N)cc(C(=O)Nc2cc(-n3cc(NC(=O)CCO)nn3)ccc2N2CCN(C)CC2)c1Cl [Example 17, 5-amino-2-chloro-4-fluoro-N-(5-(4-(3-Hydroxypropionylamino)-1H-1,2,3-triazol-1-group)-2-(4-methylpiperazin-1-group)phenyl)-3-methyl benzoylamino] | –
5 | 13.5 ± 1.2 | 16.8 ± 2 | 13.7 ± 1.4 | < 0.05 | Cc1c(F)c(N)cc(C(=O)Nc2cc(-n3cc(CCN(C)C)nn3)ccc2N2CCN(C)CC2)c1Cl [Example 19, 5-amino-2-chloro-N-(5-(4-(2-(Dimethylamino)ethyl)-1H-1,2,3-triazol-1-group)-2-(4-methylpiperazin-1-groupgroup)phenyl)-4-fluoro-3-Methyl benzoyl] | –
6 | 13.5 ± 1.5 | 13.5 ± 1.5 | 13.5 ± 1.5 | – | Cc1c(F)c(N)cc(C(=O)Nc2cc(-n3ccnn3)ccc2N2CCN(C)CC2)c1Cl [Example 11, 5-amino-2-chloro-4-fluoro-3-methyl-N-(2-(4-methylpiperazin-1-group)-5-(1H-1,2,3-triazole-1-group)phenyl) benzamide] | –
7 | 14.1 ± 1.3 | 11 ± 2 | 9.5 ± 1 | < 0.01 | Cc1c(F)c(N)cc(C(=O)Nc2cc(-n3cc(NC(=O)C4CCN(C)CC4)nn3)ccc2N2CCN(C)CC2)c1Cl [Example 14] | –
8 | 10.5 ± 2 | 9.2 ± 1.4 | 10.1 ± 1.3 | < 0.08 | Cc1c(F)c(N)cc(C(=O)Nc2cc(-n3cc(N)nn3)ccc2N2CCN(C)CC2)c1Cl [Example 13, 5-amino-N-(5-(4-amino-1H-1,2,3-triazole-1-group)-2-(4-methylpiperazin-1-group)phenyl)-2-chloro-4-fluoro-3-Methylbenzamide] | –

The next lines start with the molecule.

Row | Structure (SMILES) | GI50 [2] [µM] | GI50 [3] [µM] | GI50 [4] [µM] | IC50 [1, 9] [µM] | also measured
9 | Cc1c(F)c(N)cc(C(=O)Nc2cc(-c3ccc(C(=O)N4CCOCC4)cc3)ccc2N2CCN(C)CC2)c1Cl [reference compound] | – | – | – | – | solubility (Solubility at pH 7.4; [5]): 27 µg/mL (≈ 47.7 µM)
10 | Cc1c(F)c(N)cc(C(=O)Nc2cc(-n3cc(NC(=O)C4CCNCC4)nn3)ccc2N2CCN(C)CC2)c1Cl [drawing 18] | – | – | – | – | solubility (Solubility at pH 7.4; [6]): 1240 µg/mL (≈ 2170 µM); IC50 [1, 7]: 0.0123 µM
11 | Cc1c(F)c(N)cc(C(=O)Nc2cc(-c3ccc(NC(=O)C4CCNCC4)cc3)ccc2N2CCN(C)CC2)c1Cl [reference compound] | – | – | – | – | solubility (Solubility at pH 7.4; [5]): 125 µg/mL (≈ 216 µM); IC50 [1, 8]: 0.0085 µM
12 | Cc1c(F)c(N)cc(C(=O)Nc2cc(-n3cc(C(=O)NC4CCN(C)CC4)nn3)ccc2N2CCN(C)CC2)c1Cl [Example 6, 1-(3-(5-Amino-2-chloro-4-fluoro-3-methylbenzoylamino)-4-(4-methylpiperazin-1-group)phenyl)-N-(1-methylpiperidin-4-group)-1H-1,2,3-triazole-4-carboxamide] | 10.4 ± 0.7 | – | – | – | Average body weight changes (female balb/c mice): slight body weight increase
13 | CCOc1cn(-c2ccc(N3CCN(C)CC3)c(NC(=O)c3cc(N)c(F)c(C)c3Cl)c2F)nn1 [Example 20] | 10.5 ± 2 | 10.1 ± 1.3 | 8.6 ± 0.6 | – | –
14 | Cc1c(F)c(O)cc(C(=O)Nc2c(N3CCN(C)CC3)ccc(-n3cc(NC(=O)CCN)nn3)c2C)c1Cl [Example 23] | 27.7 ± 0.3 | 17.9 ± 1.6 | – | < 0.05 | –
15 | Cc1c(F)c(N)cc(C(=O)Nc2cc(-n3cc(C(=O)NCCN4CCOCC4)nn3)ccc2N2CCCN(C)CC2)c1Cl [Example 24, 1-(3-(5-amino-2-chloro-4-fluoro-3-Methylbenzoylamino)-4-(4-methyl-1,4-Diazepane-1-group)phenyl)-N-(2-Morpholineethyl)-1H-1,2,3-triazol-4-formamide] | 13.5 ± 2.2 | 12.9 ± 0.9 | 11.3 ± 0.7 | < 0.05 | –
16 | Cc1c(F)c(N)cc(C(=O)Nc2cc(-n3cc(C(=O)NCCN4CCOCC4)nn3)ccc2N2CCN(C)C(C)C2)c1Cl (stereo not drawn) [Example 25] | 11.3 ± 0.7 | 8.5 ± 0.7 | 10.9 ± 0.9 | < 0.05 | –
17 | COC(=O)c1ccc(-c2ccc(N3CCN(C)CC3)c(NC(=O)c3cc(N)c(F)c(C)c3Cl)c2)cc1 [reference compound] | – | – | – | – | solubility (Solubility at pH 7.4; [5]): 1.9 µg/mL (≈ 3.72 µM)
18 | Cc1c(F)c(N)cc(C(=O)Nc2cc(-c3ccc(N)cc3)ccc2N2CCN(C)CC2)c1Cl [drawing 15, reference compound] | – | – | – | – | solubility (Solubility at pH 7.4; [5]): 9.5 µg/mL (≈ 20.3 µM); IC50 [1, 8]: 0.0887 µM
19 | Cc1c(F)c(N)cc(C(=O)Nc2cc(-n3cc(C(=O)N4CCN(C)CC4)nn3)ccc2N2CCN(C)CC2)c1Cl [Example 8, 5-amino-2-chloro-4-fluoro-3-ethyl-N-(2-(4-methylpiperazin-1-group)-5-(4-(methylpiperazin-1-Carbonyl)-1H-1,-1H-1,2,3-triazole-1-group) Phenyl)-carboxamide] | 34.1 ± 1.2 | – | – | – | –
20 | Cc1c(F)c(N)cc(C(=O)Nc2cc(-n3cc(C(=O)NC4CCOCC4)nn3)ccc2N2CCN(C)CC2)c1Cl [Example 5, 1-(3-(5-Amino-2-chloro-4-fluoro-3-methylbenzoylamino)-4-(4-methylpiperazin-1-group)phenyl)-N-(tetrahydro-2H-pyran-4-yl)-1H-1,2,3-triazole-4-carboxamide] | 27.5 ± 2.8 | – | – | – | –
21 | Cc1c(F)c(N)cc(C(=O)Nc2cc(-n3ccnn3)ccc2N2CCN(C)CC2)c1Cl [drawing 12] | – | – | – | – | solubility (Solubility at pH 7.4; [6]): 30 µg/mL (≈ 67.6 µM); IC50 [1, 7]: 0.0657 µM
22 | Cc1c(F)c(O)cc(C(=O)Nc2c(N3CCN(C)CC3)ccc(-n3cc(NCC(N)=O)nn3)c2F)c1Cl [Example 21, N-(3-(4-((2-amino-2-Oxoethyl)amino)-1H-1,2,3-triazol-1-group)-2-fluoro-6-(4-methylpiperazin-1-group)phenyl)-2-chloro-4-fluoro-5-hydroxyl-3-Methyl benzoyl] | 10.5 ± 0.8 | 7.7 ± 0.9 | 12.7 ± 0.8 | < 0.08 | –
23 | Cc1c(F)c(N)cc(C(=O)Nc2cc(-n3cc(C(=O)N(C)C)nn3)ccc2N2CCN(C)CC2)c1Cl [drawing 8] | – | – | – | – | solubility (Solubility at pH 7.4; [6]): 170 µg/mL (≈ 330 µM)
24 | Cc1c(F)c(N)cc(C(=O)Nc2cc(-n3cc(NC(=O)C4CCN(C)CC4)nn3)ccc2N2CCN(C)CC2)c1Cl [drawing 16] | – | – | – | – | solubility (Solubility at pH 7.4; [6]): 630 µg/mL (≈ 1080 µM); IC50 [1, 7]: 0.006 µM
25 | Cc1c(F)c(N)cc(C(=O)Nc2cc(-c3ccc(NC(=O)C(N)C(C)C)cc3)ccc2N2CCN(C)CC2)c1Cl (stereo not drawn) [DDO-2113, reference compound] | – | – | – | – | Mouse survival (female balb/c mice): all mice died after dosing for 5 days
26 | Cc1c(F)c(N)cc(C(=O)Nc2cc(-n3cc(C(=O)N(C)C)nn3)ccc2N2CCN(C)CC2)c1Cl [Example 3, 1-(3-(5-Amino-2-chloro-4-fluoro-3-methylbenzoylamino)-4-(4-methylpiperazin-1-group)phenyl)-N, N-dimethyl-1H-1,2,3 triazole-4-carboxamide] | > 100 | 22.8 ± 5.5 | 44.6 ± 1.3 | – | –
27 | Cc1c(F)c(N)cc(C(=O)Nc2cc(-c3ccc(C(=O)N(C)C)cc3)ccc2N2CCN(C)CC2)c1Cl [reference compound] | – | – | – | – | solubility (Solubility at pH 7.4; [5]): 21 µg/mL (≈ 40.1 µM)
28 | Cc1c(F)c(N)cc(C(=O)Nc2cc(-n3cc(C(=O)N4CCOCC4)nn3)ccc2N2CCN(C)CC2)c1Cl [drawing 10] | – | – | – | – | solubility (Solubility at pH 7.4; [6]): 200 µg/mL (≈ 359 µM)
29 | Cc1c(F)c(N)cc(C(=O)Nc2cc(-n3cc(NC(=O)CCCN)nn3)ccc2N2CCN(C)CC2)c1Cl [drawing 20] | – | – | – | – | solubility (Solubility at pH 7.4; [6]): 1300 µg/mL (≈ 2400 µM); IC50 [1, 7]: 0.0067 µM
30 | Cc1c(F)c(N)cc(C(=O)Nc2cc(-n3cc(C(=O)NCCN4CCOCC4)nn3)ccc2N2CCN(C)CC2)c1Cl [Example 9] | 35.8 ± 2.7 | – | – | – | –
31 | Cc1c(F)c(N)cc(C(=O)Nc2cc(-c3ccc(NC(=O)CCCN)cc3)ccc2N2CCN(C)CC2)c1Cl [DDO-2117, reference compound] | – | – | – | – | Average body weight changes (female balb/c mice): apparent body weight decrease
32 | Cc1c(F)c(N)cc(C(=O)Nc2cc(-n3cc(N)nn3)ccc2N2CCN(C)CC2)c1Cl [drawing 14] | – | – | – | – | solubility (Solubility at pH 7.4; [6]): 110 µg/mL (≈ 240 µM); IC50 [1, 7]: 0.0903 µM
33 | Cc1c(F)c(N)cc(C(=O)Nc2cc(-c3ccccc3)ccc2N2CCN(C)CC2)c1Cl [reference compound] | – | – | – | – | solubility (Solubility at pH 7.4; [5]): 3.1 µg/mL (≈ 6.84 µM); IC50 [1, 8]: 0.0479 µM
34 | Cc1c(F)c(N)cc(C(=O)Nc2cc(-c3ccc(NC(=O)C4CCN(C)CC4)cc3)ccc2N2CCN(C)CC2)c1Cl [reference compound] | – | – | – | – | solubility (Solubility at pH 7.4; [5]): 54 µg/mL (≈ 91 µM)
35 | COC(=O)c1cn(-c2ccc(N3CCN(C)CC3)c(NC(=O)c3cc(N)c(F)c(C)c3Cl)c2)nn1 [drawing 6] | – | – | – | – | solubility (Solubility at pH 7.4; [6]): 20 µg/mL (≈ 39.8 µM)
36 | Cc1c(F)c(N)cc(C(=O)Nc2cc(-c3ccc(NC(=O)CCCN)cc3)ccc2N2CCN(C)CC2)c1Cl [drawing 21, reference compound] | – | – | – | – | solubility (Solubility at pH 7.4; [5]): 110 µg/mL (≈ 199 µM)
